Values quoted from earlier work as cited in publication PMC7179723, “Self-Assembly of Minimal Peptoid Sequences” (ACS Macro Letters, 2020).

Conditions: assembly requires dilution from an organic solution; literature statement
Source text: Control of self-assembly using sequence-specific polymers such as peptides and their mimics is a powerful approach to generating functional nanomaterials. Very short self-assembling peptides and their mimics (e.g., ≤ 5 residues) are of special interest since they are more easily scalable and they lead to insight into assembly requirements.[1] Their discovery is nontrivial since assembly propensity (e.g., hydrophobic interactions and hydrogen bonding) and favorable solvent (water) interactions must be balanced among just a few residues.[1]−[3] […] Alternatively, lamellar nanostructures were observed when the dipeptoid was precipitated in water from an ACN solution.

**Q.** Which solubility in water does the source give for diphenylalanine [FF] here?
**A.** Its solubility in water is “not directly soluble in water”.
